# Assay results: US20230172204A1 (BASF SE, priority 2020, published 2023)
# Key:
# [1] = system: Phakopsora pachyrhizi (F129L); experiment: Protective control of soybean rust on soybeans (PHAKPA P6); assay type: in vivo; conditions: for % PHAKPA (F129L) Disease level P6 at 4 ppm: protective P6, 4 ppm; for % PHAKPA (F129L) Disease level P6 at 4 ppm / % PHAKPA (F129L) Disease level P6 at 16 ppm: soybean rust F129L; for % PHAKPA (F129L) Disease level P6 at 16 ppm: protective P6, 16 ppm; for PHAKPA (F129L) Disease level (%) P6 at 16 ppm / PHAKPA (F129L) Disease level (%) P6 at 4 ppm: P6 protective, % diseased leaf area
# [2] = system: Phakopsora pachyrhizi (F129L); experiment: Protective control of soybean rust on soybeans (PHAKPA P2); assay type: in vivo; conditions: for % PHAKPA (F129L) Disease level P2 at 4 ppm: protective P2, 4 ppm; for % PHAKPA (F129L) Disease level P2 at 4 ppm / % PHAKPA (F129L) Disease level P2 at 16 ppm: soybean rust F129L; for % PHAKPA (F129L) Disease level P2 at 16 ppm: protective P2, 16 ppm; for PHAKPA (F129L) Disease level (%) P2 at 16 ppm / PHAKPA (F129L) Disease level (%) P2 at 4 ppm: P2 protective, % diseased leaf area
Compound,% PHAKPA (F129L) Disease level P6 at 4 ppm [1] [%],% PHAKPA (F129L) Disease level P6 at 16 ppm [1] [%],% PHAKPA (F129L) Disease level P2 at 4 ppm [2] [%],% PHAKPA (F129L) Disease level P2 at 16 ppm [2] [%],PHAKPA (F129L) Disease level (%) P6 at 16 ppm [1] [%],PHAKPA (F129L) Disease level (%) P2 at 16 ppm [2] [%],PHAKPA (F129L) Disease level (%) P2 at 4 ppm [2] [%],PHAKPA (F129L) Disease level (%) P6 at 4 ppm [1] [%]
CNC(=O)/C(=N/OC)c1cccc(C)c1CO/N=C(\C)c1cc(Cl)ccc1C(F)(F)F [compound 245],13,2,28,8,,,,
CO/N=C(/C(=O)OC)c1ccccc1CO/N=C(\C)c1cc(F)ccc1F [reference compound],,,,,22,1,,
CNC(=O)/C(=N/OC)c1cccc(C)c1CO/N=C(\C)c1ccccc1COC [compound 277],100,100,100,60,,,,
"CO/N=C(/C(=O)OC)c1cccc(C)c1CO/N=C(\SC)c1cccc(C)c1 [drawing 972, reference compound]",,,,,30,,60,
"CO/N=C(/C(=O)OC)c1cccc(C)c1CO/N=C(/c1cccc(Cl)c1)C1CC1 [drawing 981, reference compound]",,,,,87,,83,
CNC(=O)/C(=N/OC)c1cccc(C)c1CO/N=C(\C)c1ccc(Cl)c(C(F)(F)F)c1 [Ex. 60],53,2,23,1,0,0,,
CO/N=C(/C(=O)OC)c1cccc(C)c1CO/N=C(\C)c1ccc(-c2ccccc2)cc1 [compound 111],46,10,28,8,,,,
CNC(=O)/C(=N/OC)c1cccc(CF)c1CO/N=C(\C)c1cccc(C(F)(F)F)c1 [compound 26],19,1,12,0,,,,
CNC(=O)/C(=N/OC)c1cccc(C)c1CO/N=C(\C)c1ccc(Cl)c(Cl)c1C(F)(F)F [compound 431],40,12,32,7,,,,
CNC(=O)/C(=N/OC)c1cccc(C)c1CO/N=C(\C)c1ccc(OC(F)(F)F)cc1OC(F)(F)F [compound 349],97,35,97,50,,,,
CO/N=C(/C(=O)OC)c1cccc(Br)c1CO/N=C(\C)c1ccccc1 [compound 395],67,18,43,4,,,,
CO/N=C(/C(=O)OC)c1cccc(C)c1CO/N=C(/c1ccc(F)cc1)C(F)F [Ex. 21],97,88,100,77,,,,
CNC(=O)/C(=N/OC)c1cccc(C)c1CO/N=C(\C)c1c(F)cccc1Cl [compound 284],62,34,63,44,,,,
CC/C(=N\OCc1c(C)cccc1/C(=N\OC)C(=O)NC)c1cccc(C(F)(F)F)c1 [Ex. 188],11,0,1,0,,,2,30
C#Cc1ccc(/C(C)=N/OCc2c(C)cccc2/C(=N\OC)C(=O)OC)cc1 [compound 172],83,12,35,1,,,,
CO/N=C(/C(=O)OC)c1cccc(C)c1CO/N=C(\C)c1c(C)cccc1F [compound 285],90,35,87,50,,,,
CO/N=C(/C(=O)OC)c1cccc(C)c1CO/N=C(\C)c1cc(C#N)cc(C(F)(F)F)c1 [compound 48],100,67,100,80,,,,
CNC(=O)/C(=N/OC)c1cccc(C)c1CO/N=C(\C)c1ccc(Cl)c(Cl)c1 [Ex. 41],36,14,15,9,,,4,35
